# What was measured:
# [1] = target: T1, Full length human recombinant HDAC6 (Homo sapiens, UniProt Q9UBN7); test: In vitro histone deacetylase assay, enzymatic HDAC6 (electrophoretic mobility shift assay); type: biochemical; conditions: 1 nM HDAC6; 2 μM peptide substrate FAM-RHKK(Ac)—NH2; 25° C.; 12 concentrations; read-out: HDAC6 Activity Range (IC50)
# T1 construct: Full length human recombinant HDAC6 and HDAC11 proteins were expressed in baculoviral system
# T1 sequence (Q9UBN7 1-1215): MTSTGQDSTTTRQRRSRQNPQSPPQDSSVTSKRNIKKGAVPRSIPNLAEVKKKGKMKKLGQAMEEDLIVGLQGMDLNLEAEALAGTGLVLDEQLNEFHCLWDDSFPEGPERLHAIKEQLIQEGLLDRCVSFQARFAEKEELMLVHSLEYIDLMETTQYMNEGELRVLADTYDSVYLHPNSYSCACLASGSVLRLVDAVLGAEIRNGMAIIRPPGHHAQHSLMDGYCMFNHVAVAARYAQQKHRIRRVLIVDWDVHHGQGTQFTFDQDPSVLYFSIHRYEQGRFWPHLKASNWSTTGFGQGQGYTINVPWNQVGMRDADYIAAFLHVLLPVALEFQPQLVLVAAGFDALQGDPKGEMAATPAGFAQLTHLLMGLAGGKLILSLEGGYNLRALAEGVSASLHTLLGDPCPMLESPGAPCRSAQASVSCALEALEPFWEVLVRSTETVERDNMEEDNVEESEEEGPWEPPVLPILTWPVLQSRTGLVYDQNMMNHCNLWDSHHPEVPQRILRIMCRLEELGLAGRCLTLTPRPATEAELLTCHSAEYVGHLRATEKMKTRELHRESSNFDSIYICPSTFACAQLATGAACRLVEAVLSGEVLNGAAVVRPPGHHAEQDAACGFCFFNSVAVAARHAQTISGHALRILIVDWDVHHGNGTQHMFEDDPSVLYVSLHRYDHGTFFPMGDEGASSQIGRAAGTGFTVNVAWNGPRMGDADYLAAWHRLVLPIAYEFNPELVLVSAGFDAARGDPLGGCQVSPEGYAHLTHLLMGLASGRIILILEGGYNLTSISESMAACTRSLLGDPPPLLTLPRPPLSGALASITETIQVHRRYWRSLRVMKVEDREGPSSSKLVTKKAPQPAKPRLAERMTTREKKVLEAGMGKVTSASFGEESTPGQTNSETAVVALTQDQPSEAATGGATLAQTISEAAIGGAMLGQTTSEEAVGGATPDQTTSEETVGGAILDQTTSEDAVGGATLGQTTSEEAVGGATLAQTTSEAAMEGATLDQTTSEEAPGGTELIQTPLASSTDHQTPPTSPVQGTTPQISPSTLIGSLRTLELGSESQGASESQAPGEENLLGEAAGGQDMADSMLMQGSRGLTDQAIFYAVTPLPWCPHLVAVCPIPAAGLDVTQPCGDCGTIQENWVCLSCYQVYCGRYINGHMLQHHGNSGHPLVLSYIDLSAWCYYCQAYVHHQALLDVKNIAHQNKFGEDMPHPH
# Description: (§1) The enzymatic HDAC6 and HDAC11 assays were performed using electrophoretic mobility shift assay. Full length human recombinant HDAC6 and HDAC11 proteins were expressed in baculoviral system and purified by affinity chromatography. The enzymatic reactions were assembled in 384 well plates in a total volume of 25 μL in a reaction buffer composing: 100 mM HEPES, pH 7.5, 25 mM KCl, 0.1% bovine serum albumin, 0.01% Triton X-100, 1% DMSO (from compounds) 2 μM of the fluorescently labeled peptide substrate and enzyme. The enzymes were added at a final concentration of 1 nM for HDAC6, and 10 nM for HDAC11. The peptide substrate FAM-RHKK(Ac)—NH2 was used for HDAC6, and FAM-RHKK(tri-fluor-Ac)—NH2 for HDAC11. The compounds were tested at 12 concentrations spaced by 3× dilution intervals. Negative control samples (0%-inhibition in the absence of inhibitor) and positive control samples (100%-inhibition) were assembled in replicates of four in each assay plate. The reactions were incubated at 25° C. and quenched by the addition of 45 μL of termination buffer (100 mM HEPES, pH 7.5, 0.01% Triton X-100, 0.05% SDS).
# (§2) The terminated assay plates were analyzed on LabChip® 3000 microfluidic electrophoresis instrument (Perkin Elmer/Caliper Life Sciences). The fluorescence intensity of the electrophoretically separated de-acetylated product and substrate peptide was measured. Activity in each sample was determined as the product to sum ratio (PSR): P/(S+P), where P is the peak height of the product peptide and S is the peak height of the substrate peptide. Percent inhibition (Pinh) is determined using following equation:
# (§3) Pinh=(PSR0%−PSRinh)/(PSR0%−PSR100%)*100, where PSRinh is the product sum ratio in the presence of inhibitor, PSR0% is the average product sum ration in the absence of inhibitor and PSR100% is the average product sum ratio in 100%-inhibition control samples. The IC50 values of inhibitors were determined by fitting the %-inhibition curves with 4 parameter dose-response model using XLfit 4 software.
# (§4) As set forth in Table-26 and Table-27, below, IC5o values are defined as follows: IC50≦0.1 μM (+++); IC50>0.1 μM and ≦0.5 μM (++); IC50>0.5 μM (+).
# [2] = target: T2, Full length human recombinant HDAC11 (Homo sapiens, UniProt Q96DB2); test: In vitro histone deacetylase assay, enzymatic HDAC11 (electrophoretic mobility shift assay); type: biochemical; conditions: 10 nM HDAC11; 2 μM peptide substrate FAM-RHKK(tri-fluor-Ac)—NH2; 25° C.; 12 concentrations; read-out: HDAC11 Activity Range (IC50)
# T2 construct: Full length human recombinant HDAC6 and HDAC11 proteins were expressed in baculoviral system
# T2 sequence (Q96DB2 1-347): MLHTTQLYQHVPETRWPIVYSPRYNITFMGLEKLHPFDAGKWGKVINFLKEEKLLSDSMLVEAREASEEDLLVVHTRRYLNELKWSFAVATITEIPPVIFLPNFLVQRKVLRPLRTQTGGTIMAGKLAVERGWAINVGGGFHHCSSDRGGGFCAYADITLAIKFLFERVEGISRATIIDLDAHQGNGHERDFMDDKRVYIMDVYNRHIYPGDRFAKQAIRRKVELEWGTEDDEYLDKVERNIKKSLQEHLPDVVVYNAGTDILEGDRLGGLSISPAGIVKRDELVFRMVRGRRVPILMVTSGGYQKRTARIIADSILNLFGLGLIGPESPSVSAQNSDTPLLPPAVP
# Description: as §1, §2, §3, §4
Structure (SMILES),IC50 [1],IC50 [2]
"CN1CC[C@@]2(CCc3ccc(C(=O)NO)cc3C2)C1 [Compound I-18, (S)—N-hydroxy-1′-methyl-3,4-dihydro-1H-spiro[naphthalene-2,3′-pyrrolidine]-7-carboxamide]",100 to 500 nM,> 500 nM
"CN1CC[C@]2(CCc3ccc(C(=O)NO)cc3C2)C1 [Compound I-19, (R)—N-hydroxy-1′-methyl-3,4-dihydro-1H-spiro[naphthalene-2,3′-pyrrolidine]-7-carboxamide]",100 to 500 nM,> 500 nM
"COc1ccc(CCN2CCC3(CCc4ccc(C(=O)NO)cc4C3)C2=O)cc1 (centres unmarked) [Compound I-20, N-hydroxy-1′-(4-methoxyphenethyl)-2′-oxo-3,4-dihydro-1H-spiro[naphthalene-2,3′-pyrrolidine]-7-carboxamide]",≤ 100 nM,100 to 500 nM
"O=C(NO)c1ccc2c(c1)CC1(CC2)CCN(Cc2ccc(Cl)c(Cl)c2)C1=O (centres unmarked) [Compound I-21, 1′-(3,4-dichlorobenzyl)-N-hydroxy-2′-oxo-3,4-dihydro-1H-spiro[naphthalene-2,3′-pyrrolidine]-7-carboxamide]",≤ 100 nM,≤ 100 nM
"O=C(NO)c1ccc2c(c1)CC1(CC2)CCN(Cc2ccncc2)C1=O (centres unmarked) [Compound I-22, N-hydroxy-2′-oxo-1′-(pyridin-4-ylmethyl)-3,4-dihydro-1H-spiro[naphthalene-2,3′-pyrrolidine]-7-carboxamide]",≤ 100 nM,> 500 nM
"O=C(NO)c1ccc2c(c1)CC1(CC2)CCN(CC2CCCCC2)C1=O (centres unmarked) [Compound I-23, 1′-(cyclohexylmethyl)-N-hydroxy-2′-oxo-3,4-dihydro-1H-spiro[naphthalene-2,3′-pyrrolidine]-7-carboxamide]",≤ 100 nM,100 to 500 nM
"CC(C)N1CCC2(CCc3ccc(C(=O)NO)cc3C2)C1=O (centres unmarked) [Compound I-24, N-hydroxy-1′-isopropyl-2′-oxo-3,4-dihydro-1H-spiro[naphthalene-2, 3′-pyrrolidine]-7-carboxamide]",100 to 500 nM,> 500 nM
"CN(C)CCCN1CCC2(CCc3ccc(C(=O)NO)cc3C2)C1=O (centres unmarked) [Compound I-25, 1′-(3-(dimethylamino)propyl)-N-hydroxy-2′-oxo-3,4-dihydro-1H-spiro[naphthalene-2,3′-pyrrolidine]-7-carboxamide]",≤ 100 nM,> 500 nM
"O=C(NO)c1ccc2c(c1)CC1(CC2)CCN(c2ccccc2)C1=O (centres unmarked) [Compound I-26, N-hydroxy-2′-oxo-1′-phenyl-3,4-dihydro-1H-spiro[naphthalene-2,3′-pyrrolidine]-7-carboxamide]",≤ 100 nM,100 to 500 nM
"O=C(NO)c1ccc2c(c1)CC1(CC2)CCN(Cc2ccc(Cl)c(C(F)(F)F)c2)C1=O (centres unmarked) [Compound I-27, 1′-(4-chloro-3-(trifluoromethyl)benzyl)-N-hydroxy-2′-oxo-3,4-dihydro-1H-spiro[naphthalene-2,3′-pyrrolidine]-7-carboxamide]",≤ 100 nM,≤ 100 nM
"O=C(NO)c1ccc2c(c1)C[C@@]1(CC2)CCN(c2cccnc2)C1=O [Compound I-28, (S)—N-hydroxy-2′-oxo-1′-(pyridin-3-yl)-3,4-dihydro-1H-spiro[naphthalene-2,3′-pyrrolidine]-7-carboxamide]",≤ 100 nM,100 to 500 nM
"O=C(NO)c1ccc2c(c1)C[C@]1(CC2)CCN(c2cccnc2)C1=O [Compound I-29, (R)—N-hydroxy-2′-oxo-1′-(pyridin-3-yl)-3,4-dihydro-1H-spiro[naphthalene-2,3′-pyrrolidine]-7-carboxamide]",≤ 100 nM,> 500 nM
"O=C(NO)c1ccc2c(c1)CC1(CC2)CCN(c2ccncc2)C1=O (centres unmarked) [Compound I-30, N-hydroxy-2′-oxo-1′-(pyridin-4-yl)-3,4-dihydro-1H-spiro[naphthalene-2,3′-pyrrolidine]-7-carboxamide]",≤ 100 nM,> 500 nM
"O=C(NO)c1ccc2c(c1)C[C@@]1(CC2)CCN(c2nc3ccccc3[nH]2)C1=O [Compound I-31, (S)-1′-(1H-benzo[d]imidazol-2-yl)-N-hydroxy-2′-oxo-3,4-dihydro-1H-spiro[naphthalene-2,3′-pyrrolidine]-7-carboxamide]",≤ 100 nM,> 500 nM
"O=C(NO)c1ccc2c(c1)C[C@]1(CC2)CCN(c2nc3ccccc3[nH]2)C1=O [Compound I-32, (R)-1′-(1H-benzo[d]imidazol-2-yl)-N-hydroxy-2′-oxo-3,4-dihydro-1H-spiro[naphthalene-2,3′-pyrrolidine]-7-carboxamide]",≤ 100 nM,> 500 nM
"COCCn1c(N2CC[C@@]3(CCc4ccc(C(=O)NO)cc4C3)C2=O)nc2ccccc21 [Compound I-33, (S)—N-hydroxy-1′-(1-(2-methoxyethyl)-1H-benzo[d]imidazol-2-yl)-2′-oxo-3,4-dihydro-1H-spiro[naphthalene-2,3′-pyrrolidine]-7-carboxamide]",≤ 100 nM,> 500 nM
"COCCn1c(N2CC[C@]3(CCc4ccc(C(=O)NO)cc4C3)C2=O)nc2ccccc21 [Compound I-34, (R)—N-hydroxy-1′-(1-(2-methoxyethyl)-1H-benzo[d]imidazol-2-yl)-2′-oxo-3,4-dihydro-1H-spiro[naphthalene-2,3′-pyrrolidine]-7-carboxamide]",≤ 100 nM,≤ 100 nM
"O=C(NO)c1ccc2c(c1)C[C@@]1(CC2)CCN(Cc2ccccc2)C1=O [Compound I-35, (S)-1′-benzyl-N-hydroxy-2′-oxo-3,4-dihydro-1H-spiro[naphthalene-2,3′-pyrrolidine]-7-carboxamide]",≤ 100 nM,> 500 nM
"O=C(NO)c1ccc2c(c1)C[C@]1(CC2)CCN(Cc2ccccc2)C1=O [Compound I-36, (R)-1′-benzyl-N-hydroxy-2′-oxo-3,4-dihydro-1H-spiro[naphthalene-2,3′-pyrrolidine]-7-carboxamide]",≤ 100 nM,100 to 500 nM
